# Test results from patent publication US9242993B2, “Morpholino substituted bicyclic pyrimidine urea or carbamate derivatives as mTOR inhibitors” (CELLZOME LIMITED, priority 2011, dated 2016).
# Key:
# [1] = test system: S6RP serine-240/244 phosphorylation; assay: In vitro phospho-S6 cellular assay; assay type: cell-based; settings: Homo sapiens; HEK293T/17 cells, 2 hours; read-out: pS6 inhibition value (IC50), activity level
# In short: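 HEK293T/17 cells (40,000/well for pS6RP, 80,000/well for pAkt) in DMEM, 2% FCS treated 2 h at 37 °C with 8 compound concentrations (0.1% DMSO). Lysates assayed by MesoScale sandwich electrochemiluminescence for pS6RP Ser240/244 or pAkt Ser473. Curves fitted by sigmoidal variable-slope regression.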
# [2] = test system: Akt serine-473 phosphorylation; assay: In vitro phospho-Akt cellular assay; assay type: cell-based; settings: Homo sapiens; HEK293T/17 cells, 2 hours; read-out: pAkt inhibition value (IC50), activity level
# Excerpt: Activation of mTOR signaling results in phosphorylation of several downstream targets. In cells, mTOR exists in two different protein complexes. The mTOR Complex-1 (mTORC1) phosphorylates and activates S6 Kinase 1 (S6K1) and S6 Kinase 2 (S6K2) (also known as p70S6K) which then phosphorylate S6 Ribosomal Protein (S6RP) (also known as RPS6)3. S6RP is phosphorylated on serine 235, serine 236, serine 240 and serine 244 by both pS6K1 and pS6K2. The mTOR Complex-2 (mTORC2) phosphorylates AKT on serine 473 which activates the AKT signaling pathway.
# The assay measures a test compound's inhibition of S6RP serine-240/244 phosphorylation and inhibition of Akt serine-473 phosphorylation in human embryonic kidney derived HEK293T/17 cells (ATCC CRL-11268).
# The HEK293T/17 cell line is maintained in DMEM media (Invitrogen catalogue number 41965-039) supplemented with 10% FCS at 37° C. in a 5% CO2 humidified incubator.
# Cells are seeded in 96-well plates at 40,000 cells/well (pS6RP S240/244 assay) or 80,000 cells/well (pAkt S473 assay) in 90 μl growth media (DMEM, 2% FCS). Plates are incubated for 1 hour in a humidified incubator to allow the cells to adhere. Cells are treated with 8 concentrations of test compounds or DMSO alone for controls (final DMSO concentration 0.1%) and incubated at 37° C. for 2 hours. Then 20 μl of 5× concentrated lysis buffer (750 mM NaCl, 100 mM Tris pH7.4, 5 mM ADTA, 5 mM EGTA, 5% Triton X-100) is added, plates are sealed and incubated for 15 minutes at 4° C. with gentle shaking. After cell lysis, 25 μl cell lysate is transferred to a MesoScale plate coated with an antibody to pS6RP Ser240/244 (MesoScale Discovery K150DGD-3) or an antibody to pAkt Ser 473 (MesoScale Discovery K151DGD-3). Plates have been blocked before by incubation with 150 μl MesoScale Discovery Blocking Solution-A for 1 hour at room temperature followed by washing with 150 μl 1× Tris wash buffer per well. After the transfer of the cell lysate to the MSD plate, the pS6RP (or pAkt) protein is captured on the coated antibody by incubation at room temperature for 1 hour with gentle shaking. After the capture step the plate is washed three times with 150 μl of 1× Tris wash buffer per well. Then 25 μl detection antibody conjugated with a Sulfo-Tag is added and incubated for 1 hour at room temperature with gentle shaking. Subsequently the antibody solution is removed and the plate is washed 3 times with 150 μl 1× Tris wash buffer per well and 150 μl Read buffer is added. The plates are analysed on a MSD 2400 Plate Reader (MesoScale Discovery). Data analysis is performed using nonlinear regression for a sigmoidal dose-response with a variable slope.
# mTOR = mTOR (Homo sapiens, UniProt P42345); assay: biochemical
# [3] = target: DNA-dependent protein kinase (DNA-PK) (Homo sapiens, UniProt P78527); assay: biochemical
# DNA-dependent protein kinase (DNA-PK), sequence (P78527 whole entry): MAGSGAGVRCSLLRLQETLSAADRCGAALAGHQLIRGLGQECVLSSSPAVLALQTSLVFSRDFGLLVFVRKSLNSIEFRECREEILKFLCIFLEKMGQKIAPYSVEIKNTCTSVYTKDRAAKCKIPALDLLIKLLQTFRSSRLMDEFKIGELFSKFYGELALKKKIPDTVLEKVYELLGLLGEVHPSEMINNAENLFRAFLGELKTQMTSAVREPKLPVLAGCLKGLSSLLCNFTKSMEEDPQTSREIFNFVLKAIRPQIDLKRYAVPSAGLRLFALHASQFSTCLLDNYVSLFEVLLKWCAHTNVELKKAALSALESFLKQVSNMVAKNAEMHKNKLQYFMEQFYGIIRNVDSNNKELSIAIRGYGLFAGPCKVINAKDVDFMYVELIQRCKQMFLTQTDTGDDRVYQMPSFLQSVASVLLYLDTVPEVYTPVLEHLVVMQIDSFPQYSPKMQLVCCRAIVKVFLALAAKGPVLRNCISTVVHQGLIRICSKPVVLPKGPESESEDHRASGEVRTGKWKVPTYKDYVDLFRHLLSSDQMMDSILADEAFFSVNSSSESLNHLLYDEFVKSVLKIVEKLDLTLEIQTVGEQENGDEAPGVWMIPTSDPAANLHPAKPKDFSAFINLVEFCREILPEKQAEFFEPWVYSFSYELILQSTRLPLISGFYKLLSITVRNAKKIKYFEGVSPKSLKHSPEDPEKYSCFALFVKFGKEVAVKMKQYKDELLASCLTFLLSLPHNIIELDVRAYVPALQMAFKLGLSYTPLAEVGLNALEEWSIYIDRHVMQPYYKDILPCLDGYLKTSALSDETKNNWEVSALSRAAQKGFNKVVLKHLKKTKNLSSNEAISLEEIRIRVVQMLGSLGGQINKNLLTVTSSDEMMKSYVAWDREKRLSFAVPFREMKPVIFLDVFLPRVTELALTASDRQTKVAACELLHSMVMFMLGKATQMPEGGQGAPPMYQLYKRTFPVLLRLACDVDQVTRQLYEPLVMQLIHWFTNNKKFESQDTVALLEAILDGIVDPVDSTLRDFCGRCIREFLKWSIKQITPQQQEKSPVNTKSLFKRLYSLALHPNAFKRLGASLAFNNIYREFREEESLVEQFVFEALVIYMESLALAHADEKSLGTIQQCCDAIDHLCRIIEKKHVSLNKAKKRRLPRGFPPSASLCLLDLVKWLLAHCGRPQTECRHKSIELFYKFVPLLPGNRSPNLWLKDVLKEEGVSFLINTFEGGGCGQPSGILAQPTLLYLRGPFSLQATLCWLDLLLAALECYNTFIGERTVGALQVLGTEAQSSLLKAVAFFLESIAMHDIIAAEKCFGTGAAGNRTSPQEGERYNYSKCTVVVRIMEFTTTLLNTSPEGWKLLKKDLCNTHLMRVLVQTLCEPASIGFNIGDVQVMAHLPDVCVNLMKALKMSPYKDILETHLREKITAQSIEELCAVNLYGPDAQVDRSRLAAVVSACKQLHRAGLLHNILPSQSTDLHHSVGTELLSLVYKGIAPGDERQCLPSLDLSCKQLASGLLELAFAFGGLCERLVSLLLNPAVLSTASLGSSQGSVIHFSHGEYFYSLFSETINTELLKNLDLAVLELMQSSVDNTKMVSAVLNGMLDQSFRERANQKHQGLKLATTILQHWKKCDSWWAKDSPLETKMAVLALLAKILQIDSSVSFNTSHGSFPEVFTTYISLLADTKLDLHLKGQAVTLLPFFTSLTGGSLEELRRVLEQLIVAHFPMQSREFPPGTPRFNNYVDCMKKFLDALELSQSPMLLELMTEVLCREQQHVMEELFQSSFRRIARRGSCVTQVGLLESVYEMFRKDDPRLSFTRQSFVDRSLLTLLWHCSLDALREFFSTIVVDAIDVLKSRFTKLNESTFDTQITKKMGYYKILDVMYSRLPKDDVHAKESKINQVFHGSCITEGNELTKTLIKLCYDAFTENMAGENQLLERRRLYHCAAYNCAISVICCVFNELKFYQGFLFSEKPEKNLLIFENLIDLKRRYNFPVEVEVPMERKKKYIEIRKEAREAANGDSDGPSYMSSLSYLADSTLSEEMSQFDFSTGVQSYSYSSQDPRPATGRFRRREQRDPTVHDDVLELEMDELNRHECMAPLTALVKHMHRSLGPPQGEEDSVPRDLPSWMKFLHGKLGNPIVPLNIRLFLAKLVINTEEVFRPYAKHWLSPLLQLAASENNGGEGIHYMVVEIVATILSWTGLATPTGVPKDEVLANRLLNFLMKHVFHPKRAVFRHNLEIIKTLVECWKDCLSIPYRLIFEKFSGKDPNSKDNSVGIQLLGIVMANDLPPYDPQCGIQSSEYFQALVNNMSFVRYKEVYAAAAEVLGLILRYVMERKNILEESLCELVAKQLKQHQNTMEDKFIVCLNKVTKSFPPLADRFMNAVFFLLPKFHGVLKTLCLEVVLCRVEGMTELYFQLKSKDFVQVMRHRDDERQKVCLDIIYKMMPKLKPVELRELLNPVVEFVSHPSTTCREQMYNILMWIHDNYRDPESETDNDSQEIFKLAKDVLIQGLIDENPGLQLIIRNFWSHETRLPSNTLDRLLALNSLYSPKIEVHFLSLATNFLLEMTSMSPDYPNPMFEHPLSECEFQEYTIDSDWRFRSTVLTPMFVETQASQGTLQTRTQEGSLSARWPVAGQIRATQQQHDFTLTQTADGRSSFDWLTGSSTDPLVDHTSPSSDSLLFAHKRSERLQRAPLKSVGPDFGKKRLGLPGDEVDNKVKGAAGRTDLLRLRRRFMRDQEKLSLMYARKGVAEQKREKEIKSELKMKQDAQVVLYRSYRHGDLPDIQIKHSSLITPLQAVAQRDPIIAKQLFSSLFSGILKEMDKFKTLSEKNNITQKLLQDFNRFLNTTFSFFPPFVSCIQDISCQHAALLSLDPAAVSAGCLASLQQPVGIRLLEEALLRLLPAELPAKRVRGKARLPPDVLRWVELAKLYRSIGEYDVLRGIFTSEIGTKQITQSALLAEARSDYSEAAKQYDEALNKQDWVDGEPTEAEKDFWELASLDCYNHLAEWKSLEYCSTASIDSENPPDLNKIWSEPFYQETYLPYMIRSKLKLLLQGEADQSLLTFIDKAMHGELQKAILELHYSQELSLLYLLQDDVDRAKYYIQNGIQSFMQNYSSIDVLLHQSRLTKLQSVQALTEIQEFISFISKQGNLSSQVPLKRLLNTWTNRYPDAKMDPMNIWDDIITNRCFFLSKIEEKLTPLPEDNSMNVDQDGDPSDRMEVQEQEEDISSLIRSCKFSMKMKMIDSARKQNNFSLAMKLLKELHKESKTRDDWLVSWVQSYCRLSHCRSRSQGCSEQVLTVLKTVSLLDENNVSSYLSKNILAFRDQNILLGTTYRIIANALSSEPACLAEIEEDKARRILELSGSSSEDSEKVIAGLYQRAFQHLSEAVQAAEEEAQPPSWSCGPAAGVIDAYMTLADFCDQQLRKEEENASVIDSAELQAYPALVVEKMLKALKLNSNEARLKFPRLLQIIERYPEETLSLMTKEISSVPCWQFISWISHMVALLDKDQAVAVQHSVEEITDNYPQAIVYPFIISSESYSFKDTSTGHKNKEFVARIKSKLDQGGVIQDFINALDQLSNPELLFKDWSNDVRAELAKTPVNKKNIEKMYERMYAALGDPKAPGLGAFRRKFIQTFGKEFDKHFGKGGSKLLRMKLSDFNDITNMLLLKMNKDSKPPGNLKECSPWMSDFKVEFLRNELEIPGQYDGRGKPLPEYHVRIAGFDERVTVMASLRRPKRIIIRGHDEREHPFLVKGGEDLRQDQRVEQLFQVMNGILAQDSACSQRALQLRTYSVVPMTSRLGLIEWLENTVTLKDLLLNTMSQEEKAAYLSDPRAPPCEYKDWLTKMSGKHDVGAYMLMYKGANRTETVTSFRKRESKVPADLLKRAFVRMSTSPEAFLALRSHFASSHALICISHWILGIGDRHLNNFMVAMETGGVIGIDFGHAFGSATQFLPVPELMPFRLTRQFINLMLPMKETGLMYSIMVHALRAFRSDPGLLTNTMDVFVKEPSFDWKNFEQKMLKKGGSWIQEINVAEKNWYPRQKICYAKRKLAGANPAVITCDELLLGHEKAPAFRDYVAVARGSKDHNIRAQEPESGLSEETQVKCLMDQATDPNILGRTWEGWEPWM
# [4] = Bi-directional Caco-2 permeability assay; assay type: in vitro ADME; settings: human, pH 7.4, Caco-2, 10 uM, pH7.4, read-out: Efflux ratio (ER), Papp B>A/Papp A>B
# Experimental: Bi-directional Caco-2 assays to assess the permeability of compounds in the gi tract, were performed as described below.
# 2×10^5 cells/well were seeded in plating medium consisting of DMEM+GlutaMAXI+1% NEAA+10% FBS (FetalClone II)+1% Pen/Strep. The medium was changed every 2-3 days.
# 50 uM Lucifer Yellow (Sigma) was added to the donor buffer in all wells to assess integrity of the cell layers by monitoring Lucifer Yellow permeation. As Lucifer Yellow (LY) cannot freely permeate lipophilic barriers, a high degree of LY transport indicates poor integrity of the cell layer. After a 1 hr incubation at 37° C. while shaking at an orbital shaker at 150 rpm, 70 ul aliquots were taken from both apical (A) and basal (B) chambers and added to 100 ul 50:50 acetonitrile:water solution containing analytical internal standard (0.5 uM carbamazepine) in a 96 well plate.
# Concentrations of compound in the samples were measured by high performance liquid-chromatography/mass spectroscopy (LC-MS/MS).
# The Efflux ratio, as an indication of active efflux from the apical cell surface of Caco-2 cells, was calculated using the ratio of Papp B>A/Papp A>B.
# [5] = test system: IFNγ release in whole blood; assay: In vitro human whole blood assay (IFNγ release); assay type: cell-based; settings: αCD3/αCD28 and IL-2 stimulation, 18 hours, read-out: WB inhibition value (pIC50) (converted)
# In short: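 Na-heparin human whole blood, diluted 1.4-fold in RPMI, was preincubated 1 h at 37° C with 10 compound concentrations (0.2% DMSO), then stimulated with 1 μg/ml αCD3, 1 μg/ml αCD28 and 10 ng/ml IL-2 for 18 h. Plasma IFNγ quantified by MesoScale electrochemiluminescence immunoassay; values from variable-slope sigmoidal dose-response fit.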
IC50 [1],IC50 [2],IC50 (mTOR),IC50 [3],IC50 [5],SMILES,"efflux ratio at 1 h, 10 uM [4]"
< 100 nM,< 100 nM,< 100 nM,,,"C[C@@H]1c2c(nc(-c3ccc(NC(=O)NC4CC4)cc3)nc2N2CCOC[C@@H]2C)CS1(=O)=O (single isomer, unassigned) [Example 9]",
< 100 nM,< 100 nM,< 100 nM,,,"C[C@H]1COCCN1c1nc(-c2ccc(NC(=O)NC3CC3)cc2)nc2c1[C@H](C)S(=O)(=O)C2 (single isomer, unassigned) [Example 10]",
< 100 nM,< 100 nM,< 100 nM,> 10 µM,,"C[C@H]1COCCN1c1nc(-c2ccc(NC(=O)NC3CC3)cc2)nc2c1CSC2 [Example 1, (S)-1-cyclopropyl-3-(4-(4-(3-methylmorpholino)-5,7-dihydrothieno[3,4-d]pyrimidin-2-yl)phenyl)urea]",
< 100 nM,< 100 nM,< 100 nM,,,"C[C@H]1COCCN1c1nc(-c2ccc(NC(=O)NC3CC3)cc2)nc2c1CS(=O)(=O)C2 [Example 2, (S)-1-cyclopropyl-3-(4-(4-(3-methylmorpholino)-6,6-dioxido-5,7-dihydrothieno[3,4-d]pyrimidin-2-yl)phenyl)urea]",
< 100 nM,< 100 nM,< 100 nM,> 10 µM,,"C[C@H]1COCCN1c1nc(-c2ccc(NC(=O)NC3CC3)cc2)nc2c1S(=O)(=O)CC2 [Example 5, (S)-1-cyclopropyl-3-(4-(4-(3-methylmorpholino)-5,5-dioxido-6,7-dihydrothieno[3,2-d]pyrimidin-2-yl)phenyl)urea]",
< 100 nM,,< 100 nM,> 10 µM,,"CCC1COCCN1c1nc(-c2ccc(NC(=O)NC3CC3)cc2)nc2c1CS(=O)(=O)C2 (centres unmarked) [Example 27, 1-cyclopropyl-3-(4-(4-(3-ethylmorpholino)-6,6-dioxido-5,7-dihydrothieno[3,4-d]pyrimidin-2-yl)phenyl)urea]",25
< 100 nM,,< 100 nM,> 10 µM,794 nM,"CC1Cc2nc(-c3ccc(NC(=O)NC4CC4)cc3)nc(N3CCOC[C@@H]3C)c2CS1(=O)=O (stereo partly drawn) [Example 71, 1-cyclopropyl-3-(4-(7-methyl-4-((S)-3-methylmorpholino)-6,6-dioxido-7,8-dihydro-5H-thiopyrano[4,3-d]pyrimidin-2-yl)phenyl)urea]",
< 100 nM,,< 100 nM,> 10 µM,398 nM,"CC1Cc2nc(-c3ccc(NC(=O)NC4CC4)cc3)nc(N3CCOC[C@@H]3C)c2C(C)S1(=O)=O (stereo partly drawn) [Example 72, 1-cyclopropyl-3-(4-(5,7-dimethyl-4-((S)-3-methylmorpholino)-6,6-dioxido-7,8-dihydro-5H-thiopyrano[4,3-d]pyrimidin-2-yl)phenyl)urea]",
< 100 nM,,< 100 nM,> 10 µM,63.1 nM,"CCNC(=O)Nc1ccc(-c2nc3c(c(N4CCOC[C@@H]4C)n2)CS(=O)(=O)C(C)(C)C3)cc1 [Example 73, (S)-1-(4-(7,7-dimethyl-4-(3-methylmorpholino)-6,6-dioxido-7,8-dihydro-5H-thiopyrano[4,3-d]pyrimidin-2-yl)phenyl)-3-ethylurea]",
< 100 nM,,< 100 nM,> 10 µM,501 nM,"CC1c2c(nc(-c3ccc(NC(=O)NC4CC4)cc3)nc2N2CCOC[C@@H]2C)CCS1(=O)=O (stereo partly drawn) [Example 74, 1-cyclopropyl-3-(4-(5-methyl-4-((S)-3-methylmorpholino)-6,6-dioxido-7,8-dihydro-5H-thiopyrano[4,3-d]pyrimidin-2-yl)phenyl)urea]",

SMILES,IC50 [1],IC50 [2],IC50 (mTOR),IC50 [3],IC50 [5],"efflux ratio at 1 h, 10 uM [4]"
"CCNC(=O)Nc1ccc(-c2nc(N3CCOC[C@@H]3C)c3c(n2)C(C)(C)S(=O)(=O)C3)cc1 [Example 62, (S)-1-(4-(7,7-dimethyl-4-(3-methylmorpholino)-6,6-dioxido-5,7-dihydrothieno[3,4-d]pyrimidin-2-yl)phenyl)-3-ethylurea]",< 100 nM,,,> 10 µM,200 nM,22
